Results on 20 molecules are retold here after US11440906B2, “Biguanide derivatives and their rearrangement products for use in the treatment of cancer” (CENTRE NATIONAL DE LA RECHERCHE SCIENTIFIQUE, priority 2017, dated 2022).

In this test the test system is A375 Sensitive cells. In words: Viability test, trypan blue exclusion, A375 Sensitive cells. Particulars: Homo sapiens, A-375; for viability at 5 µM / viability at 10 µM: viable cells as percentage of DMSO control. Format: cell-based, human. From the text:
Different melanoma cell lines were purchased from the American Tissue Culture Collection: A375 and WM9 cells are mutated on B-Raf, CDKN2A and PTEN proteins; SKmel28 cells are mutated on B-Raf and P53 proteins; 1205Lu cells are mutated on B-Raf and PTEN proteins; G-361 cells are mutated on B-Raf and CDKN2A proteins; C8161 cells are mutated on B-Raf and K-Ras proteins; WM3912 cells are mutated on B-Raf and CDKN2A proteins; MeWo cells are mutated on P53 and CDKN2A proteins; WM3918 presents no mutations on characteristic proteins.
For trypan blue staining, […] of cells (melanoma and normal human cells) were aseptically transferred to a 1.5 mL clear Eppendorf tube and incubated for 3 min at room temperature with an equal volume of 0.4% trypan blue solution. Viable cells were counted and the results are expressed as the percentage of the value of control cells. All the experiments are performed 3 times in triplicate.
A375 Sensitive cells were treated with different concentrations of the synthesized molecules (5.0 μM or 10 μM) for different times (24 hr or 48 hr) or with DMSO (Control) for 12 or 48 hr. At the end of the stimulation, viable cells were counted using the trypan blue dye exclusion method. The results are normalized as percentages compare to the control.
A375 Sensitive cells were treated with 5 μM of CRO15 for different times (2 hr, 4 hr, 6 hr, 8 hr, 12 hr, 24 hr or 48 hr) or with 5 μM of PLX4032 (B-Raf inhibitor) for 48 hr or with DMSO (Control) for 48 hr. At the end of stimulation, viable cells were counted using the trypan blue dye exclusion method. The results are normalized as percentages compare to the control and data means±SEM of three independent experiments performed in triplicate *p<0.05; **p<0.01; ***p<0.001.
A375 Sensitive cells were treated with different concentrations of CRO15 (0.5 μM, 2.5 μM, 5.0 μM, 7.5 μM, 50 μM) for 48 hr or with 5 μM of PLX4032 (B-Raf inhibitor) for 48 hr or with DMSO (Control) for 48 hr. At the end of the stimulation, viable cells were counted using the trypan blue dye exclusion method. The results are normalized as percentages compare to the control and data means±SEM of three independent experiments performed in triplicate *p<0.05; **p<0.01; ***p<0.001.
A375 sensitive and resistant melanoma cells were treated with 5 μM of CRO15 for 48 hr or with 5 μM of PLX4032 for 48 hr or with DMSO (Control). At 48 hours, viable cells were counted using the trypan blue dye exclusion method. The results are normalized as percentages compare to the control and data means±SEM of three independent experiments performed in triplicate *p<0.05; **p<0.01; ***p<0.001.

The mark [1] stands for this setting: 24 h, read-out: Viab A375 5 μM/ 24 h.
Setting [2] is: 48 h, read-out: Viab A375 5 μM/ 48 h.
Setting [3] is: 24 h, read-out: Viab A375 10 μM/ 24 h.
Setting [4] is: 48 h, read-out: Viab A375 10 μM/ 48 h.

Read-outs that look alike come from different tables or passages of the source.

With `Nc1nc(Nc2ccccc2SSc2ccccc2Nc2nc(N)nc(-c3ccccc3)n2)nc(-c2ccccc2)n1` [MTF 326, N2,N2′-(disulfanediylbis(2,1-phenylene))bis(6-phenyl-1,3,5-triazine-2,4-diamine)], the viability at 5 µM was 27.4% under setting [1] and 27.9% under setting [2]. Besides, the viability at 10 µM under setting [3] was determined as 12.9% and the viability at 10 µM under setting [4] is 6.7%.
The corresponding values for `N=C(NC(=N)c1ccc(I)cc1)Nc1nc2ccccc2s1` [MTF 247, N—(N-(benzo[d]thiazol-2-yl)carbamimidoyl)-4-iodobenzimidamide] are 100%, 135%, 122% and 100%.
On to `Nc1cccc(-c2nc(N)nc(Nc3ccccc3SSc3ccccc3Nc3nc(N)nc(-c4cccc(N)c4)n3)n2)c1` [MTF 460, N2,N2′-(disulfanediylbis(2,1-phenylene))bis(6-(3-aminophenyl)-1,3,5-triazine-2,4-diamine)], for which the viability at 5 µM is, setting by setting: under setting [1], 61.9%; under setting [2], 69.5%. The viability at 10 µM is, setting by setting: under setting [3], 64.5%; under setting [4], 38.6%.
Consider `N=C(NC(=N)c1ccccc1F)Nc1nc2ccccc2s1` [MTF 249, N—(N-(benzo[d]thiazol-2-yl)carbamimidoyl)-2-fluorobenzimidamide], for which the viability at 5 µM under setting [1] is 25.4% and the viability at 5 µM under setting [2] amounted to 10.6%. Moreover, the viability at 10 µM reads like this: under setting [3], 14.4%; under setting [4], 8.9%.
Taken in the same sequence, the figures for `N=C(NC(=N)c1ccc([N+](=O)[O-])cc1)Nc1nc2ccccc2s1` [MTF 398, N—(N-(benzo[d]thiazol-2-yl)carbamimidoyl)-4-nitrobenzimidamide] were 91.9%, 132%, 91% and 109%.
As for `COc1ccc(C(=N)NC(=N)Nc2nc(C)cs2)cc1` [MTF 292, 4-methoxy-N—(N-(4-methylthiazol-2-yl)carbamimidoyl)benzimidamide], the viability at 5 µM under setting [1] was 88.1% and the viability at 5 µM under setting [2] is 83.3%. In addition, the viability at 10 µM under setting [3] is 142% and the viability at 10 µM under setting [4] came out at 71.9%.
For the molecule `CC(=O)c1cccc(C(=N)NC(=N)Nc2nc3ccccc3s2)c1` [MTF 255, 3-acetyl-N—(N-(benzo[d]thiazol-2-yl)carbamimidoyl)benzimidamide], the viability at 5 µM was found to be 26.1% under setting [1] and 4.7% under setting [2]. The viability at 10 µM stood at 3.2% under setting [3] and 3.8% under setting [4]. Also, the half-inhibitory concentration (IC50) (A375, printed in the 10 μM/24 h column of Table 1, read-out: IC50 (converted)) was 2300 nM.
Regarding `N=C(NC(=N)c1ccc(Cl)cc1)Nc1nc(-c2cccc([N+](=O)[O-])c2)cs1` [MTF 281, 4-chloro-N—(N-(4-(3-nitrophenyl)thiazol-2-yl)carbamimidoyl)benzimidamide], the viability at 5 µM reads like this: under setting [1], 79%; under setting [2], 112%. For the same molecule, the viability at 10 µM runs as follows: under setting [3], 57.4%; under setting [4], 78%.
For `Nc1nc(Nc2ccccc2SSc2ccccc2Nc2nc(N)nc(-c3c(Br)cncc3Br)n2)nc(-c2c(Br)cncc2Br)n1` [MTF 456, N2,N2′-(disulfanediylbis(2,1-phenylene))bis(6-(3,5-dibromopyridin-4-yl)-1,3,5-triazine-2,4-diamine)], the viability at 5 µM under setting [1] is 66.5% and the viability at 5 µM under setting [2] came to 87.5%. Moreover, the viability at 10 µM runs as follows: under setting [3], 52.3%; under setting [4], 76.1%.
Take `N=C(NC(=N)c1ccccc1Cl)Nc1nc2ccccc2s1` [MTF 244, N—(N-(benzo[d]thiazol-2-yl)carbamimidoyl)-2-chlorobenzimidamide]: the viability at 5 µM stood at 81.6% under setting [1] and 68% under setting [2]. Moreover, the viability at 10 µM is 84.9% under setting [3] and 68.4% under setting [4].
On to `N=C(NC(=N)c1cccnc1)Nc1nc2ccccc2s1` [MTF 252, N—(N-(benzo[d]thiazol-2-yl)carbamimidoyl)nicotinimidamide], for which the viability at 5 µM is, setting by setting: under setting [1], 8.6%; under setting [2], 5.2%. For the same molecule, the viability at 10 µM under setting [3] amounted to 12.9% and the viability at 10 µM under setting [4] was 2.6%.
On to `N#Cc1cccc(-c2nc(N)nc(Nc3ccccc3SSc3ccccc3Nc3nc(N)nc(-c4cccc(C#N)c4)n3)n2)c1` [MTF 325, 3,3′-(((disulfanediylbis(2,1-phenylene))bis(azanediyl))bis(6-amino-1,3,5-triazine-4,2-diyl))dibenzonitrile], for which the viability at 5 µM turned out to be 58.1% under setting [1] and 30.9% under setting [2]. In addition, the viability at 10 µM is 71% under setting [3] and 29.7% under setting [4].
Taken in the same sequence, the figures for `CSc1ccccc1Nc1nc(N)nc(C(Cl)(Cl)Cl)n1` [MTF 316, N2-(2-(methylthio)phenyl)-6-(trichloromethyl)-1,3,5-triazine-2,4-diamine] were 124%, 69.6%, 104% and 48.2%.
On to `N=C(NC(=N)c1ccnc(Br)c1)Nc1nc2ccccc2s1` [MTF 386, N—(N-(benzo[d]thiazol-2-yl)carbamimidoyl)-2-bromoisonicotinimidamide], for which the viability at 5 µM runs as follows: under setting [1], 28.9%; under setting [2], 6.6%. In addition, the viability at 10 µM under setting [3] came out at 18.1% and the viability at 10 µM under setting [4] was 3.7%.
Take `COc1cccc(-c2nc(N)nc(Nc3ccccc3SSc3ccccc3Nc3nc(N)nc(-c4cccc(OC)c4)n3)n2)c1` [MTF 318]: the viability at 5 µM turned out to be 74.1% under setting [1] and 21.6% under setting [2]. Also, the viability at 10 µM by setting is: under setting [3], 20.5%; under setting [4], 6.3%.
As for `Nc1nc(Nc2ccc([N+](=O)[O-])cc2O)nc(C(Cl)(Cl)Cl)n1` [MTF 376, 2-((4-amino-6-(trichloromethyl)-1,3,5-triazin-2-yl)amino)-5-nitrophenol], the viability at 5 µM amounted to 44.7% under setting [1] and 38.9% under setting [2]. The viability at 10 µM runs as follows: under setting [3], 24.3%; under setting [4], 20.9%.
Take `N#Cc1cccc(C(=N)NC(=N)Nc2nc3ccccc3s2)c1` [MTF 347, N—(N-(benzo[d]thiazol-2-yl)carbamimidoyl)-3-cyanobenzimidamide]: the viability at 5 µM reads like this: under setting [1], 26.9%; under setting [2], 6.6%. For the same molecule, the viability at 10 µM under setting [3] is 27.6% and the viability at 10 µM under setting [4] came to 6.8%.
`CSc1ccccc1Nc1nc(N)nc(C(Cl)Cl)n1` [MTF 317, 6-(dichloromethyl)-N2-(2-(methylthio)phenyl)-1,3,5-triazine-2,4-diamine]: the viability at 5 µM under setting [1] worked out at 106% and the viability at 5 µM under setting [2] turned out to be 58.7%. The viability at 10 µM reads like this: under setting [3], 109%; under setting [4], 70%.
`Nc1nc(Nc2ccccc2SSc2ccccc2Nc2nc(N)nc(-c3ccccc3Cl)n2)nc(-c2ccccc2Cl)n1` [MTF 450, N2,N2′-(disulfanediylbis(2,1-phenylene))bis(6-(2-chlorophenyl)-1,3,5-triazine-2,4-diamine)]: the viability at 5 µM under setting [1] was 38.6% and the viability at 5 µM under setting [2] was determined as 54.8%. For the same molecule, the viability at 10 µM runs as follows: under setting [3], 38.3%; under setting [4], 49.9%.
Take `Nc1nc(Nc2ccc(Cl)cc2SSc2cc(Cl)ccc2Nc2nc(N)nc(C(Cl)(Cl)Cl)n2)nc(C(Cl)(Cl)Cl)n1` [MTF 233, N2,N2′-(disulfanediylbis(4-chloro-2,1-phenylene))bis(6-(trichloromethyl)-1,3,5-triazine-2,4-diamine)]: the viability at 5 µM is 13.9% under setting [1] and 8.9% under setting [2]. Also, the viability at 10 µM reads like this: under setting [3], 7%; under setting [4], 4.7%.

For orientation: IC50 means the midpoint of a concentration-inhibition curve.
